Assay results taken from ChEMBL document CHEMBL5728462, “Disubstituted compounds for treatment of medical disorders” (2021).

Target: Complement factor D (Homo sapiens, UniProt P00746)
Assay: Human Factor D Assay: Human Factor D (purified from human serum, Complement Technology, Inc.) at 80 nM final concentration is incubated with test compound at various concentrations for 5 minutes at room temperature in 50 mM Tris, 1M NaCl, pH 7.5. A synthetic substrate Z-L-Lys-SBzl and DTNB (Ellman's reagent) are added to final concentrations of 100 μM each. Absorbance at 405 nm (A405) is recorded at 30 second intervals for 30 minutes using a microplate spectrophotometer. IC50 values are calculated by nonlinear regression of complement Factor D reaction rates as a function of test compound concentration.

Sequence of Complement factor D (P00746 whole entry): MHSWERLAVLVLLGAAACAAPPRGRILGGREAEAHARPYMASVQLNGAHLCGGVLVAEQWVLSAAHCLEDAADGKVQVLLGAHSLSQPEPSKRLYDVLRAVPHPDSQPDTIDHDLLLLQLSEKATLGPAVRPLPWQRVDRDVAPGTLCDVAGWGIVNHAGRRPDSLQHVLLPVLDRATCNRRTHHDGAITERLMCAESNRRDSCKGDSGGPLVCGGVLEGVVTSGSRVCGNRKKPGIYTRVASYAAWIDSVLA

CC(=O)c1nn(CC(=O)N2C[C@H](F)C[C@H]2C(=O)Nc2cccc(Br)n2)c2ccc(-c3cnc(S(C)(=O)=NC(=O)OC(C)(C)C)nc3)cc12 (stereo partly specified) was tested, and the IC50 was < 1 µM.
